These results are taken from PubChem BioAssay AID1159563 (GlaxoSmithKline (GSK), 2015).

SMILES strings stand for the structures. Calls of active or inactive are those of the source. The rule behind the calls is not given here.

The test system of this test is HepG2 cytotoxicity. Briefly: human hepatoma cell viability loss – cytotoxicity control (AID 1159563).
On to `NC(=O)c1ccccc1Nc1nc(NC2CCCCC2)nc2[nH]ccc12`, for which the concentration for half-maximal inhibition (IC50) is 20 µM. `CCCN(Cc1ccc(OC)c(OC)c1)Cc1cc(=O)c2c(C)cc(C)cc2[nH]1`: the IC50 is 63 µM.

With `COc1ccc(-c2nc3ccncc3c(=O)n2CCOc2ccccc2)cc1`, the IC50 is > 100 µM (inactive). As to `O=C(Nc1nc2ccccc2[nH]1)c1ccc2nc[nH]c2c1`, the IC50 is 50 µM. Consider `O=C(Nc1ccc(Br)c(Cl)c1)Nc1ccc2c(c1)OCO2`, for which the IC50 was > 100 µM (inactive). `CCNc1cc(-c2ccccn2)nc(Nc2ccccc2)n1`: the IC50 is 25 µM. For the molecule `CNC(=O)C1Cc2ccccc2N1C(=O)Cc1ccccc1` (stereo not given), the IC50 was > 100 µM (inactive). Take `Cc1ccc(NC(=O)c2ccnc(N3CCCC3)c2)cc1-c1cc(C(N)=O)ccc1C`: the IC50 is > 100 µM (inactive). Turning to `Cc1cc(Nc2cc(C3CC3)[nH]n2)nc(N2CCCC2)n1`, the 50% inhibitory concentration (IC50) was 32 µM. As to `CCCCN(C(=O)c1ccc(NC(=O)C(C)C)cc1)c1ccccc1`, the IC50 was > 100 µM (inactive).

`O=C(Nc1ncc([N+](=O)[O-])s1)C1CC1`: the IC50 was > 100 µM (inactive). On to `O=C(NCCc1ccccn1)C(c1cn[nH]c1)N1CCN(c2ccc(Cl)c(Cl)c2)CC1` (stereo not given), for which the IC50 is > 100 µM (inactive). As to `COCc1cnc2c(c1SCc1c(F)cccc1Cl)c(=O)n(C)c(=O)n2C`, the IC50 is > 100 µM (inactive). Take `Cc1ccc(NC(=O)C(C)n2nc([N+](=O)[O-])c(Br)c2C)cc1Cl` (stereo not given): the IC50 is 79 µM.

`O=C(Nc1nccs1)c1ccccc1Cn1cc([N+](=O)[O-])cn1`: the IC50 was > 100 µM (inactive). Turning to `CNc1cc(Cn2c(C(=O)c3cc(C)cc(Cl)c3)c(C(C)C)c(=O)[nH]c2=O)ccn1`, the IC50 is > 100 µM (inactive). As to `N#Cc1cccc(CN2CCC(c3nc(-c4ccc(C(F)(F)F)nc4)no3)CC2)c1`, the IC50 was > 100 µM (inactive).

Take `CC(C(=O)Nc1ccccc1F)N(C)CC(=O)Nc1cccc2ccccc12` (stereo not given): the IC50 was > 100 µM (inactive). Regarding `COc1ccc2nc(N(Cc3cccnc3)C(=O)C3CCC3)sc2c1`, the IC50 was > 100 µM (inactive). `CC1(Oc2cncc(Cl)c2)CCN(Cc2cc3ccccc3[nH]2)C1` (stereo not given): the IC50 was 32 µM. Turning to `COc1cc(OC)cc(C(=O)N[C@@H](CC(C)C)C(=O)NC2(C#N)CC2)c1`, the IC50 was > 100 µM (inactive). Regarding `COCc1cc(Nc2ccccc2)nc(-c2ccccn2)n1`, the IC50 was 100 µM. On to `Cc1ccc(NC(=O)c2ccnc(N3CCCC3)c2)cc1-c1ccsc1C(N)=O`, for which the IC50 is > 100 µM (inactive).

Regarding `N#Cc1cc(N2CCCC2=O)ccc1Sc1ccccc1CO`, the IC50 is > 100 µM (inactive). As for `CCOc1ccc(NC(=O)C=Cc2ccc(CC)o2)cc1`, the IC50 is 79 µM. The same measure for `COCc1cc(Nc2ccc(Cl)cc2)nc(-c2ccccn2)n1`: 13 µM. As for `CC1CCCCN1C(=O)NCCc1coc(-c2ccc(F)cc2)n1` (stereo not given), the IC50 was > 100 µM (inactive). `OCCCNc1nc(Nc2ccncc2)nc2ccccc12`: the IC50 was > 100 µM (inactive). For `CCN(Cc1nc2ccc(C(=O)N3CCN(c4ncccn4)CC3)cc2[nH]1)C1CCCc2cccnc21` (stereo not given), the IC50 is > 100 µM (inactive). For the molecule `CCOc1ccc(NC(=O)c2ccc(NC(=O)NC3CCCCC3)cc2)cc1`, the IC50 is > 100 µM (inactive).

For the molecule `c1ccc2[nH]c(-c3ccc(N4CCCC4)nc3)nc2c1`, the IC50 was > 100 µM (inactive). As for `CC(C)(C)Nc1nc(-c2ccccn2)nc2ccccc12`, the half-inhibitory concentration (IC50) was 20 µM. For the molecule `CNc1nc(C)nc(N2CCc3cc(C(=O)NCc4ccc(-c5nccn5C)cc4Cl)ccc32)n1`, the IC50 was 32 µM.

Turning to `CS(=O)(=O)c1ccc(CC(=O)Nc2nc(-c3ccc(Cl)s3)cs2)cc1`, the IC50 is > 100 µM (inactive). For `CN(Cc1nc2ccc(C(=O)NCC3CCCCC3)cc2[nH]1)C1CCCc2cccnc21` (stereo not given), the concentration for half-maximal inhibition (IC50) was 16 µM. For `Cc1nn2c(NCCCO)c3c(nc2c1-c1cccs1)CCC3`, the IC50 is > 100 µM (inactive). In the case of `c1cc(-c2ncc(-c3ccn[nH]3)s2)ccn1`, the IC50 was > 100 µM (inactive). On to `Cc1nn(C)c(Cl)c1CN(Cc1cccnc1)Cc1ccsc1`, for which the IC50 was > 100 µM (inactive).

On to `COc1ccc2c(Cl)c(C(=O)N3CCC3)sc2c1Cl`, for which the IC50 was > 100 µM (inactive). Consider `O=C(Nc1nc(-c2ccc(S(=O)(=O)N3CCOCC3)cc2)cs1)c1ccc([N+](=O)[O-])cc1`, for which the IC50 was > 100 µM (inactive).

Take `CC1CN(S(=O)(=O)c2ccc(NC(=O)c3cc(C4CC4)nc4c3cnn4C(C)C)cc2)CC(C)O1` (stereo not given): the IC50 is > 100 µM (inactive). The result for `Cc1ccccc1NS(=O)(=O)c1ccc2[nH]cc(C(=O)NC3CCCCC3)c(=O)c2c1` reads 32 µM; that for `Cc1cc(N2CCc3ccccc3C2)nc(Nc2ccc(S(=O)(=O)N3CCOCC3)cc2)n1`, > 100 µM (inactive); that for `O=C(Nc1nc(-c2ccccn2)cs1)C1CCc2ccccc2C1` (stereo not given), 40 µM. For `N#Cc1cccc(CN2CCC(N(Cc3cccnc3)C(=O)c3cc(F)c(F)cc3F)CC2)c1`, the IC50 was > 100 µM (inactive). Take `O=C(Nc1cccc(F)c1)N1CCC(Oc2cccc(-c3cccnc3)c2)CC1`: the IC50 is > 100 µM (inactive). `C=CCN(Cc1cccs1)C(=O)CSc1nnc(-c2ccc3c(c2)OCO3)o1`: the IC50 was > 100 µM (inactive). As to `CNC(=O)C1Cc2ccccc2N1C(=O)Cc1ccc(F)cc1` (stereo not given), the IC50 is > 100 µM (inactive).

For the molecule `Cc1nn(-c2ccccc2)nc1CNC(=O)CN(Cc1ccccn1)Cc1ccccn1`, the IC50 was > 130 µM (inactive). `CS(=O)(=O)NC1CCC(Nc2ncc(Br)c(Nc3ccccc3C(N)=O)n2)CC1` (stereo not given): the IC50 was > 100 µM (inactive). The same measure for `CC(C)CC(=O)Nc1cc(C2CC2)nn1-c1nc2c(c(=O)[nH]1)CCCC2`: > 100 µM (inactive); for `O=C(Nc1ccc(C(F)(F)F)cc1)Nc1cccc([N+](=O)[O-])c1`: 10 µM. For `CN(C)c1ccc(N)cc1CN(CC1CCCO1)S(C)(=O)=O` (stereo not given), the IC50 was > 100 µM (inactive). Consider `COc1cc(Cl)c(C)cc1NC(=O)c1ccc([N+](=O)[O-])s1`, for which the half-inhibitory concentration (IC50) is 32 µM. As for `COc1cccc(NS(=O)(=O)c2ccc3[nH]cc(C(=O)NCCC(C)C)c(=O)c3c2)c1`, the half-maximal inhibitory concentration (IC50) is 32 µM. The same measure for `Cc1cc(-c2cccc3ccccc23)nc2nc(N)nc(N)c12`: 50 µM; for `COc1cc(C(C)C)c(S(C)(=O)=O)cc1C(=O)N1CCN(c2ccccc2Cl)CC1`: > 100 µM (inactive). On to `N#Cc1cnc(Nc2cccc(CCN3CCOCC3)c2)nc1Nc1ccccc1C(N)=O`, for which the half-maximal inhibitory concentration (IC50) was 25 µM. For the molecule `N#Cc1c(Oc2cccc(Cl)c2)cccc1[N+](=O)[O-]`, the IC50 is 25 µM. In the case of `CC(C)c1nn(-c2nc(N)nc(-c3ccccn3)n2)c(N)c1C1CCCCC1`, the IC50 was 20 µM.

Take `CCOC(=O)c1noc(N)c1-c1ccccc1`: the IC50 was > 100 µM (inactive).

Regarding `Cc1nn(-c2nc(N)nc(-c3ccccn3)n2)c(C)c1Cc1ccccc1`, the IC50 is > 100 µM (inactive). The same measure for `C[C@@H](Oc1cc(-n2cnc3ccc(CC(O)CO)cc32)sc1C(N)=O)c1ccccc1Cl` (stereo not given in full): > 100 µM (inactive); for `CS(=O)(=O)c1ccccc1C(=O)N(Cc1ccccc1)c1ccccc1`: > 100 µM (inactive). As to `Cc1cc2cc(CNc3ccc4c(c3)OCO4)c(=O)n(CCO)c2cc1C`, the IC50 is > 100 µM (inactive). Turning to `O=C(CN(Cc1ccccn1)Cc1ccccn1)NCc1ccc(-c2csnn2)cc1`, the IC50 is 25 µM.

Turning to `CCn1c(NC(=O)Cc2ccc(F)cc2)nc2ccccc21`, the IC50 is > 100 µM (inactive). With `COc1cccc2sc(CN(C)C(=O)C3CNCCN3c3ccc(F)cc3)c(C)c12` (stereo not given), the IC50 was 13 µM. With `COc1cc(OC)cc(C(NS(=O)(=O)c2ccc(Cl)c(C(F)(F)F)c2)c2nccn2C)c1` (stereo not given), the IC50 is > 100 µM (inactive). In the case of `CCCc1cc(N)nc(-c2cc(CCC)cc(N)n2)c1`, the IC50 was 32 µM.

Regarding `O=C(NCCc1ccn(-c2ccccc2)n1)C1CCCCC1`, the IC50 is > 100 µM (inactive). The result for `COc1ccc(CNc2nsc3ccccc23)cc1OC` reads 50 µM; that for `O=C(NCCc1csc(-c2ccc(F)cc2)n1)c1cccs1`, > 100 µM (inactive); that for `CN(C)Cc1ccc(-c2ccc(S(=O)(=O)NCC3CCCO3)c(F)c2)cc1` (stereo not given), > 130 µM (inactive). As to `C[C@@H](Oc1cc(-n2cnc3cc(N)ccc32)sc1C(N)=O)c1ccccc1Cl`, the IC50 was 20 µM. As for `COc1ccc(Cc2nc(-c3ncc4cccnc4c3O)n[nH]2)cc1OC`, the IC50 was 50 µM. `OC1CCC(Nc2nccc(-c3sc(C4CCOCC4)nc3-c3ccc(F)c(F)c3)n2)CC1` (stereo not given): the IC50 was 25 µM. In the case of `CS(=O)(=O)c1ccc(Nc2nccc(-c3cnn4ncccc34)n2)cc1`, the IC50 is 16 µM. Consider `COc1ccc(OC)c(S(=O)(=O)N(Cc2c(F)cccc2F)[C@@H]2CCN(C#N)C2)c1`, for which the IC50 is 79 µM. The result for `CCOc1cnn(C)c(=O)c1Nc1ccc(C(=O)NCc2ccc(F)cc2)cc1` reads > 100 µM (inactive); that for `Cc1nc2c(-c3n[nH]c(-c4ccccc4N)n3)cccn2c1C`, 16 µM; that for `COc1ncc(-c2ccc3nccc(-c4ccncc4)c3c2)cc1NS(C)(=O)=O`, > 100 µM (inactive). With `CN(Cc1nc2ccccc2s1)C(=O)C=Cc1cc2ccccc2o1`, the IC50 was > 100 µM (inactive). Consider `COc1cc2c(cc1OC)[C@H]1[C@@H](C)c3ccc(OC)c(OC)c3CN1CC2`, for which the IC50 is > 100 µM (inactive). The result for `COc1ccc(C)cc1-c1csc(NC(=O)C(C)n2ccnc2)n1` (stereo not given) reads > 100 µM (inactive); that for `Cc1cccc(N2CCCN(Cc3c[nH]c4ccccc34)CC2)n1`, 13 µM. In the case of `O=C(NCCc1cccnc1)c1ccc(-c2ccccc2F)o1`, the IC50 is > 100 µM (inactive).

As for `O=C(Nc1nc2ccccc2[nH]1)c1c(O)c2cccc3c2n(c1=O)CC3`, the IC50 is 10 µM.

`COc1cnc2ccc(=O)n(CCN3CCC(NC(=O)c4ccc(Cl)cc4)CC3)c2c1`: the IC50 was > 100 µM (inactive).

Consider `Cc1[nH]c2ccccc2c(=O)c1Cc1c(C)[nH]c2ccccc2c1=O`, for which the IC50 was > 100 µM (inactive).
